Data reported in patent US20080161248A1, “Methods and Compositions for Therapeutic Treatment” (priority 2006, published 2008).
Where two headings read alike, the source gives them in different places.

Columns and labels:
[1] = system: mouse spleen cells, response to LPS; experiment: In vitro LPS assay on spleen cells; format: cell-based; details: high ([…]10^6 cells/well) and low (8×10^5 cells/well) cell concentration
From the text: Animals: 8-9 weeks-old Lewis and Brown Norway male rats were obtained from Charles River Laboratories. General procedures for animal care and housing was in accordance with the National Research Council (NRC) Guide for the Care and Use of Laboratory Animals (1996) and the Animal Welfare Standards incorporated in 9 CFR Part 3, 1991.
Spleens were collected for use in in vitro Con A and LPS assays.
FIGS. 10 and 11 show the effect of quercetin and tacrolimus on response of mouse spleen cells to LPS at a high (1.6×10^6 cells/well) and low (8×10^5 cells/well) cell concentration, respectively.

[2] = body surface area corrections, cited from earlier work
[3] = liver transplantation, European study, 12-month post-transplant; cited from earlier work

Q: Which “effect on response of spleen cells to LPS (proliferation)” value [1] does the source give for `C=CC[C@@H]1/C=C(\C)C[C@H](C)C[C@H](OC)C2O[C@@](O)(C(=O)C(=O)N3CCCC[C@H]3C(=O)O[C@H](/C(C)=C/[C@@H]3CC[C@@H](O)[C@H](OC)C3)[C@H](C)[C@@H](O)CC1=O)[C@H](C)C[C@@H]2OC` (relative stereo) [Prograf, [3S-[3R[E(1S*,3S*,4S*)], 4S*,5R*,8S*,9E,12R*,14R*,15S*,16R*,18S*,19S*,26aR*]]-,6,8,11,12,13,14,15,16,17,18,19,24,25,26,26a-hexadecahydro-5,19-dihydroxy-3-[2-(4-hydroxy-3-methoxycyclohexyl)-1-methylethenyl]-14,16-dimethoxy-4,10,12,18-tetramethyl-8-(2-propenyl)-15,19-epoxy-3H-pyrido[2,1-c][1,4]oxaazacyclotricosine-1,7,20,21 (4H,23H)-tetrone, monohydrate] here?
A: Its value is “inhibited LPS-induced proliferation in a dose dependent manner”.

Q: And the “dose at or above which mortalities were seen” value (“dose” below) ([2]; adult rats, IV)?
A: The value was ≥ 16 × the recommended human IV dose.

Q: What about the “dose” value ([2]; adult rats, oral) of the same molecule?
A: The value was ≥ 52 × the recommended human oral dose.

Q: And the “dose” value ([2]; immature rats, oral)?
A: The value was ≥ 16 × the recommended oral dose.

Q: What about the “Adverse event: Abdominal Pain” value [3] of the same molecule?
A: The value was 29%.

Q: What about the “Adverse event: Anemia” value [3] of the same molecule?
A: The value was 5%.

Q: What about the “Adverse event: Anorexia” value [3] of the same molecule?
A: Its value is 7%.

Q: And the “Adverse event: Ascites” value [3]?
A: The value was 7%.

Q: And the “Adverse event: Asthenia” value [3]?
A: The value was 11%.

Q: What about the “Adverse event: Atelectasis” value [3] of the same molecule?
A: The value was 5%.

Q: What about the “Adverse event: BUN Increased” value [3] of the same molecule?
A: The value was 12%.

Q: And the “Adverse event: Back Pain” value [3]?
A: Its value is 17%.

Q: And the “Adverse event: Constipation” value [3]?
A: Its value is 23%.

Q: And the “Adverse event: Creatinine Increased” value [3]?
A: Its value is 24%.

Q: What about the “Adverse event: Diarrhea” value [3] of the same molecule?
A: Its value is 37%.

Q: What about the “Adverse event: Dyspnea” value [3] of the same molecule?
A: The value was 5%.

Q: What about the “Adverse event: Fever” value [3] of the same molecule?
A: The value was 19%.

Q: What about the “Adverse event: Headache” value [3] of the same molecule?
A: The value was 37%.

Q: What about the “Adverse event: Hyperglycemia” value [3] of the same molecule?
A: Its value is 33%.

Q: And the “Adverse event: Hyperkalemia” value [3]?
A: The value was 13%.

Q: And the “Adverse event: Hypertension” value [3]?
A: The value was 38%.

Q: What about the “Adverse event: Hypokalemia” value [3] of the same molecule?
A: Its value is 13%.

Q: And the “Adverse event: Hypomagnesemia” value [3]?
A: Its value is 16%.

Q: And the “Adverse event: Insomnia” value [3]?
A: Its value is 32%.

Q: What about the “Adverse event: Kidney Function Abnormal” value [3] of the same molecule?
A: Its value is 36%.

Q: And the “Adverse event: LFT Abnormal” value [3]?
A: The value was 6%.

Q: And the “Adverse event: Leukocytosis” value [3]?
A: Its value is 8%.

Q: What about the “Adverse event: Nausea” value [3] of the same molecule?
A: Its value is 32%.

Q: And the “Adverse event: Oliguria” value [3]?
A: Its value is 19%.

Q: What about the “Adverse event: Pain” value [3] of the same molecule?
A: Its value is 24%.

Q: And the “Adverse event: Paresthesia” value [3]?
A: Its value is 17%.

Q: What about the “Adverse event: Peripheral Edema” value [3] of the same molecule?
A: Its value is 12%.

Q: What about the “Adverse event: Pleural Effusion” value [3] of the same molecule?
A: Its value is 36%.

Q: What about the “Adverse event: Pruritus” value [3] of the same molecule?
A: The value was 15%.

Q: And the “Adverse event: Rash” value [3]?
A: Its value is 10%.

Q: What about the “Adverse event: Thrombocytopenia” value [3] of the same molecule?
A: The value was 14%.

Q: What about the “Adverse event: Tremor” value [3] of the same molecule?
A: The value was 48%.

Q: What about the “Adverse event: Urinary Tract Infection” value [3] of the same molecule?
A: Its value is 21%.

Q: And the “Adverse event: Vomiting” value [3]?
A: Its value is 14%.
